Assay results reported in ChEMBL document CHEMBL1649527, “Daptomycin rapidly penetrates a Staphylococcus epidermidis biofilm” (Antimicrob Agents Chemother, 2009).

What was measured:
[1] = test system: Staphylococcus epidermidis; assay: Permeability of Bodipy-tagged compound across Staphylococcus epidermidis RP62A biofilms assessed as diffusion coefficient at 23 degC by time lapse confocal scanning microscopy; type: ADME, organism-based; details: in vivo
[2] = test system: Staphylococcus epidermidis; assay: Permeability of rhodamine-tagged compound across Staphylococcus epidermidis RP62A biofilms assessed as diffusion coefficient at 23 degC by time lapse confocal scanning microscopy; type: ADME, organism-based; details: in vivo
[3] = test system: Staphylococcus epidermidis; assay: Permeability of unlabeled compound across Staphylococcus epidermidis RP62A biofilms assessed as diffusion coefficient at 23 degC by time lapse confocal scanning microscop; type: ADME, organism-based; details: in vivo
[4] = test system: Staphylococcus epidermidis; assay: (§1) Permeability of Bodipy-tagged compound across Staphylococcus epidermidis RP62A biofilms with 181 micrometer radial dimensions and 103 micrometer orthogonal dimensions assessed as time required for fluorescence intensity in centre of biofilm cluster to reach 50% of steady state maximum bulk fluid fluorescence intensity; type: ADME, organism-based; details: in vivo
[5] = test system: Staphylococcus epidermidis; assay: as §1, with “278” for “181”, “168” for “103”; type: ADME, organism-based; details: in vivo
[6] = test system: Staphylococcus epidermidis; assay: as §1, with “223” for “181”, “153” for “103”; type: ADME, organism-based; details: in vivo
[7] = test system: Staphylococcus epidermidis; assay: as §1, with “rhodamine-tagged” for “Bodipy-tagged”, “217” for “181”, “115” for “103”; type: ADME, organism-based; details: in vivo
[8] = test system: Staphylococcus epidermidis; assay: as §1, with “rhodamine-tagged” for “Bodipy-tagged”, “207” for “181”, “97” for “103”; type: ADME, organism-based; details: in vivo
[9] = test system: Staphylococcus epidermidis; assay: as §1, with “rhodamine-tagged” for “Bodipy-tagged”, “94” for “181”, “63” for “103”; type: ADME, organism-based; details: in vivo
[10] = Aqueous diffusion coefficient of Bodipy-tagged compound at 23 degC by time lapse confocal scanning microscopy; type: physicochemical; details: buffer
[11] = Aqueous diffusion coefficient of rhodamine-tagged compound at 23 degC by time lapse confocal scanning microscopy; type: physicochemical; details: buffer

For `CCCCCCCCCC(=O)N[C@@H](Cc1c[nH]c2ccccc12)C(=O)N[C@H](CC(N)=O)C(=O)N[C@@H](CC(=O)O)C(=O)N[C@@H]1C(=O)NCC(=O)N[C@@H](CCCN)C(=O)N[C@@H](CC(=O)O)C(=O)N[C@H](C)C(=O)N[C@@H](CC(=O)O)C(=O)NCC(=O)N[C@H](CO)C(=O)N[C@@H]([C@H](C)CC(=O)O)C(=O)N[C@@H](CC(=O)c2ccccc2N)C(=O)O[C@@H]1C`, the D [1] was 5.2 ×10⁻⁷ cm2/sec, the D [2] was 4.7 ×10⁻⁷ cm2/sec and the D [3] was 0.78 ×10⁻⁶ cm2/s. For the same compound, the Time [4] was 67 s, the Time [5] was 210 s and the Time [6] was 60 s. It also gave a Time [7] of 140 s, a Time [8] of 40 s and a Time [9] of 26 s. The D [10] was 1.73 ×10⁻⁶ cm2/s and the D [11] was 1.78 ×10⁻⁶ cm2/s.
